Reference: patent publication US20110028447A1, “INDAZOLE DERIVATIVES” (Pfizer Inc., priority 2008, published 2011)
Like-named read-outs stand apart in the source and are kept apart here.

Columns and labels:
human CB1 receptor [1] = molecular target: T1, human CB1 receptor (Homo sapiens, UniProt P21554); test: [35S] GTPγS binding on membranes of CHO cells expressing the human CB1 receptor (agonism); type: biochemical; parameters: expressed in transfected cells; membrane preparation
Procedure, shortened: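 Membranes from human CB1-expressing CHO cells (5 μg/well) incubated with test compound and [35S]GTPγS in 50 mM Tris pH 7.4, 100 mM NaCl, 3 mM MgCl2, 0.2 mM EGTA, 0.04% BSA for 45 min at 37 °C. Bound label collected by filtration, scintillation counted; EC50 from curve fits.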

human CB1 receptor [2] = molecular target: T1, human CB1 receptor; test: Human CB1 receptor binding, [3H] CP-55,940 displacement on HEK cell membranes; parameters: expressed in transfected cells; host or cells: HEK cells, doxycycline-induced; membrane preparation
Procedure, shortened: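 Radioligand displacement: [3H] CP-55,940 at […] final, 1 μg membrane protein per well from HEK cells with tetracycline-inducible human CB1, 60 min at room temperature, pH 7.4 Tris/NaCl/MgCl2/EGTA/BSA buffer. 50 μM WIN-55,212-2 set nonspecific binding; bound label filtered, counted, and fitted for EC50 and Ki values.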

[3] = GTPγS EC50, human CB1, CHO cell membranes
[4] = human CB1, CHO cell membranes, read-out: GTPγS EC50

T1 sequence (P21554 whole entry): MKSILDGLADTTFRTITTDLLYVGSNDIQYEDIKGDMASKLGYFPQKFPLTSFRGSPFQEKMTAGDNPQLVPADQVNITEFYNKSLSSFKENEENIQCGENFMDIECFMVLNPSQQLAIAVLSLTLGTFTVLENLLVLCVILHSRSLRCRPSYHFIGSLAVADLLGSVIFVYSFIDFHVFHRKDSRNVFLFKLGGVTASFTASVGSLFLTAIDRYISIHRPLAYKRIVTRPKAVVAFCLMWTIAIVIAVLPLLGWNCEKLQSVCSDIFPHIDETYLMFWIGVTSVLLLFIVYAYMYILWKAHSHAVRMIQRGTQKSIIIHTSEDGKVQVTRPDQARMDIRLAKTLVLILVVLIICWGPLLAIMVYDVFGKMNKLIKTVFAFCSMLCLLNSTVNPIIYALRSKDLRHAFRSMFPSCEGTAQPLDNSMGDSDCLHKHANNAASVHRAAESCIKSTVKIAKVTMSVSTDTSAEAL

| SMILES | EC50 (human CB1 receptor [1]; [3]) [nM] | Ki (human CB1 receptor [2]; CB1 Ki) [nM] | EC50 (human CB1 receptor [1]; [4]) [nM] | Ki (human CB1 receptor [2]; read-out: CB1 Ki) [nM] |
| --- | --- | --- | --- | --- |
| CC(C)(C)[C@H](NC(=O)c1nn(Cc2ccccc2)c2ncccc12)C(N)=O [Example 12, N-[(1S)-1-(aminocarbonyl)-2,2-dimethylpropyl]-1-benzyl-1H-pyrazolo[3,4-b]pyridine-3-carboxamide] | 302 | 11.5 | – | – |
| CC(C)(C)[C@H](NC(=O)c1nn(Cc2ccc(C#N)cc2)c2c(F)cccc12)C(=O)N[C@@H](CO)c1ccccc1 [Example 215] | – | – | 41.3 | 7.69 |
| CCOC(=O)c1nc(CNC(=O)C(NC(=O)c2nn(Cc3ccc(C#N)cc3)c3ccccc23)C(C)(C)C)no1 (centres unmarked) [Example 136] | – | – | 115 | 10.7 |
| CC(C)(C)[C@H](NC(=O)c1nn(Cc2ccc(C#N)cc2)c2c(F)cccc12)C(=O)NCC(F)(F)F [Example 309] | 2.59 | 1.59 | – | – |
| CC(C)NC(=O)OC1CCN(C(=O)[C@@H](NC(=O)c2nn(Cc3ccc(F)cc3)c3ccccc23)C(C)(C)C)CC1 [Example 302] | – | – | 33.1 | 5.41 |
| CC(C)(C)[C@H](NC(=O)c1nn(Cc2ccc(F)cc2)c2ccccc12)C(=O)N1CCC(F)C1 (some centres unmarked) [Example 334] | 9.41 | 1.72 | – | – |
| CC(C)(C)C(NC(=O)c1nn(Cc2ccc(C#N)cc2)c2ccc(F)cc12)C(N)=O (centres unmarked) [Example 163] | 180 | 4.45 | – | – |
| CC(C)(C)[C@H](NC(=O)c1nn(Cc2ccc(F)cc2)c2c(F)c(F)ccc12)C(=O)NC(CO)CO [Example 325] | 5.33 | 1.97 | – | – |
| CC(C)(C)C(NC(=O)c1nn(Cc2ccc(C#N)cc2)c2c(Cl)cccc12)C(=O)NCC(N)=O (centres unmarked) [Example 201] | 70.1 | 14.2 | – | – |
| CC(C)(C)[C@H](NC(=O)c1nn(Cc2ccc(F)cc2)c2ccccc12)C(=O)N1CCN(CC(O)CO)CC1 (some centres unmarked) [Example 233] | – | – | 11.5 | 2.45 |
| CC(C)(C)[C@H](NC(=O)c1nn(Cc2ccc(C#N)cc2F)c2ccccc12)C(=O)NCCNS(=O)(=O)C1CC1 [Example 98] | – | – | 8.63 | 0.98 |
| CC(C)(C)[C@H](NC(=O)c1nn(Cc2ccc(C#N)cc2)c2c(F)cccc12)C(=O)N1CC(O)C1 [Example 214] | 23.4 | 3.87 | – | – |
| CC(C)(C)C(NC(=O)c1nn(Cc2ccc(C#N)cc2)c2ccccc12)C(N)=O (centres unmarked) [Example 28] | 121 | 2.05 | – | – |
| NC(=O)[C@@H](NC(=O)c1nn(Cc2ccc(F)cc2)c2ccccc12)c1ccccc1 [Example 3, N-[(1S)-2-amino-2-oxo-1-phenylethyl]-1-(4-fluorobenzyl)-1H-indazole-3-carboxamide] | 298 | 49.9 | – | – |
| CC(C)(C)C(NC(=O)c1nn(Cc2ccc(C#N)cc2)c2c(Cl)cccc12)C(=O)NC1CC1 (centres unmarked) [Example 198] | 7.07 | 1.19 | – | – |
| CC(C)(C)[C@H](NC(=O)c1nn(Cc2ccc(F)cc2)c2ccccc12)C(=O)N1CCC[C@@H]1CO [Example 307] | 1.56 | 1.27 | – | – |
| CC(C)(C)[C@H](NC(=O)c1nn(Cc2ccc(F)cc2)c2c(F)cccc12)C(=O)NCCS(N)(=O)=O [Example 348] | 19.7 | 7.83 | – | – |
| CC(C)(C)[C@H](NC(=O)c1nn(Cc2ccc(F)cc2)c2ccccc12)C(=O)NC[C@H]1CCCC[C@H]1O [Example 250] | – | – | 18.1 | 3.72 |
| CC(C)(C)[C@H](NC(=O)c1nn(Cc2ccc(F)cc2)c2ccccc12)C(=O)NC[C@H]1C[C@H]1CO [Example 492] | 9.71 | 1.32 | – | – |
| CC(C)(C)C(NC(=O)c1nn(Cc2ccc(C#N)cc2F)c2ccccc12)C(=O)NCC(O)CO (centres unmarked) [Example 89] | 539 | 63.4 | – | – |

| SMILES | EC50 (human CB1 receptor [1]; [3]) [nM] | Ki (human CB1 receptor [2]; CB1 Ki) [nM] | EC50 (human CB1 receptor [1]; [4]) [nM] | Ki (human CB1 receptor [2]; read-out: CB1 Ki) [nM] |
| --- | --- | --- | --- | --- |
| Cc1cc(CNC(=O)c2nn(Cc3ccc(C#N)cc3)c3ccccc23)c(C)o1 [Example 68] | 90.1 | 4.61 | – | – |
| CC(C)(C)[C@H](NC(=O)c1nn(Cc2ccc(F)cc2)c2ccccc12)C(=O)NCCNC(=O)C1CC1 [Example 103] | – | – | 9.08 | 2.68 |
| CCOC(=O)[C@H]1C[C@@H](NC(=O)[C@@H](NC(=O)c2nn(Cc3ccc(F)cc3)c3ccccc23)C(C)(C)C)C1 [Example 381] | – | – | 26.9 | 15.3 |
| CC(C)(C)C(NC(=O)c1nn(Cc2ccc(C#N)cc2)c2ccc(F)cc12)C(=O)NCCO (centres unmarked) [Example 166] | 132 | 5.14 | – | – |
| CC(C)(C)[C@H](NC(=O)c1nn(Cc2ccc(F)cc2)c2ccccc12)C(=O)N1CCC(F)(CO)CC1 [Example 337] | – | – | 21.1 | 3.48 |
| CC(C)(C)[C@H](NC(=O)c1nn(Cc2ccc(F)cc2)c2ccccc12)C(=O)Nc1cnoc1 [Example 513] | 13.7 | 2.3 | – | – |
| CCOC(=O)c1nnc(CNC(=O)[C@@H](NC(=O)c2nn(Cc3ccc(C#N)cc3)c3ccccc23)C(C)(C)C)o1 [Example 129] | – | – | 106 | 12.6 |
| CC(C)(C)[C@H](NC(=O)c1nn(Cc2ccccc2)c2cc(-c3cccnc3)ccc12)C(N)=O [Example 45] | – | – | 21.4 | 8.79 |
| CC(C)(C)[C@H](NC(=O)c1nn(Cc2ccc(F)cc2)c2ccccc12)C(=O)NCCN1CCCC1=O [Example 499] | – | – | 204 | 18.3 |
| CC(C)(C)[C@H](NC(=O)c1nn(Cc2ccc(F)cc2)c2ccccc12)C(=O)NCCNc1ccccn1 [Example 480] | – | – | 42.6 | 15.3 |
| CC(C)(C)[C@H](NC(=O)c1nn(Cc2ccc(F)cc2)c2ccccc12)C(=O)N1C[C@@H](O)[C@@H](O)C1 [Example 284] | 12.3 | 1.03 | – | – |
| CCOC(=O)c1nnc(CNC(=O)[C@@H](NC(=O)c2nn(Cc3ccc(F)cc3)c3ccccc23)C(C)(C)C)o1 [Example 128] | – | – | 3.58 | 0.97 |
| CC(C)(C)[C@H](NC(=O)c1nn(Cc2ccc(F)cc2)c2ccccc12)C(=O)N[C@@H]1CNC(=O)C1 [Example 459] | 17.7 | 2.78 | – | – |
| CC(C)(C)C(NC(=O)c1nn(Cc2ccc(C#N)cc2F)c2ccccc12)C(N)=O (centres unmarked) [Example 86] | 34.2 | 2.75 | – | – |
| CC(C)(C)[C@H](NC(=O)c1nn(Cc2ccc(F)cc2)c2ccccc12)C(N)=O [Example 1, N-[(1S)-1-(Aminocarbonyl)-2,2-dimethylpropyl]-1-(4-fluorobenzyl)-1H-indazole-3-carboxamide] | 0.98 | 0.36 | – | – |
| Cc1cc2c(C(=O)N[C@H](C(=O)NCCS(N)(=O)=O)C(C)(C)C)nn(Cc3ccc(F)cc3)c2cc1F [Example 512] | 31.4 | 8.4 | – | – |
| CC(C)(C)[C@H](NC(=O)c1nn(Cc2ccc(C#N)cc2)c2c(F)cccc12)C(=O)NC(CO)CO [Example 117] | 168 | 9.54 | – | – |
| CC(C)(C)C(NC(=O)c1nn(Cc2ccc(C#N)cc2)c2ccccc12)C(=O)N1CCC(O)CC1 (centres unmarked) [Example 134] | 326 | 32.7 | – | – |
| CC(C)(C)[C@H](NC(=O)c1nn(Cc2ccc(F)cc2)c2ccccc12)C(=O)NCC(=O)Nc1ccccn1 [Example 520] | – | – | 10.1 | 1.88 |
| CC(C)(C)[C@H](NC(=O)c1nn(Cc2ccc(F)cc2)c2ccccc12)C(=O)N1CC(F)C1 [Example 336] | 0.52 | 0.11 | – | – |
